# Results: patent US7115594B2, “Use of 2-methylene-19-nor-20(S)-1α,25-dihydroxyvitamin D3 to increase bone strength” (Wisconsin Alumni Research Foundation, priority 2000, dated 2006)
# Entries after “also recorded” stand apart in the source; their conditions may differ.
# Columns and labels:
# [1] = test system: ovariectomized old female rats; experiment: Strength of femurs and vertebrae to mechanical stress (animals of Table 1); assay type: in vivo; settings: for Stress Value Femur / Stress Value Vertebra: ovariectomized rats
# [2] = test system: ovariectomized old female rats; experiment: Treatment of ovariectomized old female rats (bone mass, serum calcium, femur ash); settings: for BMC / BMC/Body Wt. / BMD / Femur Ash / Femur Ash (%) / Body Wt. / Serum CA: ovariectomized rats, mean ± SEM
# Rhesus monkeys = experiment: Single oral dose in Rhesus monkeys, serum calcium; assay type: in vivo; settings: single oral dose of 27 μg; 10 Kg Rhesus monkey; preliminary
# Excerpt: FIGS. 7 and 8 snow a six week toxicity study in rats showing that 2MD appears safe at up to 30 pmol/day.
# These and other tests indicate that primates will tolerate 2MD extremely well which may give a very large window between efficacy and the danger of hypercalcemia in man.
# [3] = test system: intestinal calcium transport; experiment: Intestinal calcium transport activity; assay type: in vivo; settings: FIG. 2
# Excerpt: FIG. 2 is a graph illustrating the intestinal calcium transport activity of 2-methylene-19-nor-20(S)-1α,25-dihydroxyvitamin D3 as compared to 1α,25-dihydroxyvitamin D3;
# The in vivo tests of increasing serum calcium of rats on a zero calcium diet provides an insight to […] or bone activity of 2MD.
# [4] = molecular target: T1, porcine intestinal vitamin D receptor (Sus scrofa, UniProt A3RGC1); experiment: Competitive binding of [3H]-1,25-(OH)2-D3 to the porcine intestinal vitamin D receptor; settings: FIG. 1, standard 1,25-(OH)2D3
# T1 construct: from tissue; host or cells: pig intestine (nuclear receptor preparation)
# T1 sequence (A3RGC1 1-427): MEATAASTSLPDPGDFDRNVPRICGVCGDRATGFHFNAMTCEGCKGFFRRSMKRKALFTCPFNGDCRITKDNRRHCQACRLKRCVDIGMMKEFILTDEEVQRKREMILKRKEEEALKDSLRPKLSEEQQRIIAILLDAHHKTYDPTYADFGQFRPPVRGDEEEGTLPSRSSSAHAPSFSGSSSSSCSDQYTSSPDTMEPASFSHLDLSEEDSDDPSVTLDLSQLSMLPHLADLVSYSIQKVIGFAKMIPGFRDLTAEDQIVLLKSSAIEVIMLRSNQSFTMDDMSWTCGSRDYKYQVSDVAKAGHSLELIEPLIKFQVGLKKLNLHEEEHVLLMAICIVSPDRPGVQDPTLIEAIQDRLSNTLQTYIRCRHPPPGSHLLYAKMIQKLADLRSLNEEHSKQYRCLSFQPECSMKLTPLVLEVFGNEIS
# Description: FIG. 1 is a graph illustrating the relative activity of 2-methylene-19-nor-20(S)-1α,25-dihydroxyvitamin D3, 2-methylene-19-nor-1α,25-dihydroxyvitamin D3 and 1α,25-dihydroxyvitamin D3 to compete for binding of [^3H]-1,25-(OH)2-D3 to the vitamin D pig intestinal nuclear receptor;
# Competitive binding of the analogs to the porcine intestinal receptor was carried out by the method described by Dame et al (Biochemistry 25, 4523–4534, 1986).
compound,measurement,setting,value
"C=C1/C(=C\C=C2/CCC[C@]3(C)[C@@H]([C@H](C)CCCC(C)(C)O)CC[C@@H]23)C[C@@H](O)C[C@@H]1O [1,25(OH)2D3, 1α,25-dihydroxyvitamin D3]",Stress Value Femur,[1]; 250 pmol/day/5X/Week,118.21 ± 19.85
same,Stress Value Vertebra,[1]; 250 pmol/day/5X/Week,19.24 ± 5.66
same,Stress Value Femur,[1]; 500 pmol/d/3-5X/Week,116.47 ± 16.20
same,Stress Value Vertebra,[1]; 500 pmol/d/3-5X/Week,17.14 ± 0.52
same,BMC,"[2]; 250 pmol/d 5X/Week, 8 weeks",8.90 ± 0.40 g
same,BMC/Body Wt.,"[2]; 250 pmol/d 5X/Week, 8 weeks",22.4 ± 0.48 mg/g
same,BMD,"[2]; 250 pmol/d 5X/Week, 8 weeks",0.297 ± 0.001 g/cm^2
same,BMC,"[2]; 250 pmol/d 5X/Week, 17 weeks",9.6 ± 0.39 g
same,BMC/Body Wt.,"[2]; 250 pmol/d 5X/Week, 17 weeks",24.5 ± 0.87 mg/g
same,BMD,"[2]; 250 pmol/d 5X/Week, 17 weeks",0.308 ± 0.008 g/cm^2
same,BMC,"[2]; 250 pmol/d 5X/Week, 30 weeks",10.1 ± 0.30 g
same,BMC/Body Wt.,"[2]; 250 pmol/d 5X/Week, 30 weeks",26.1 ± 0.97 mg/g
same,BMD,"[2]; 250 pmol/d 5X/Week, 30 weeks",0.310 ± 0.007 g/cm^2
same,Femur Ash,"[2]; 250 pmol/d 5X/Week, 30 weeks",417 ± 23 mg
same,Femur Ash (%),"[2]; 250 pmol/d 5X/Week, 30 weeks",60.8 ± 1.1%
same,BMC,"[2]; 500 pmol/d 3X/Week, 17 weeks",11.5 ± 0.25 g
same,BMC/Body Wt.,"[2]; 500 pmol/d 3X/Week, 17 weeks",27.6 ± 0.68 mg/g
same,BMD,"[2]; 500 pmol/d 3X/Week, 17 weeks",0.331 ± 0.008 g/cm^2
same,BMC,"[2]; 500 pmol/d 3X/Week, 30 weeks",11.8 ± 0.23 g
same,BMC/Body Wt.,"[2]; 500 pmol/d 3X/Week, 30 weeks",28.0 ± 0.69 mg/g
same,BMD,"[2]; 500 pmol/d 3X/Week, 30 weeks",0.328 ± 0.008 g/cm^2
same,Femur Ash,"[2]; 500 pmol/d 3X/Week, 30 weeks",478 ± 7.5 mg
same,Femur Ash (%),"[2]; 500 pmol/d 3X/Week, 30 weeks",61.4 ± 1.3%
same,BMC,"[2]; 500 pmol/d 5X/Week, 8 weeks",10.2 ± 0.40 g
same,BMC/Body Wt.,"[2]; 500 pmol/d 5X/Week, 8 weeks",26.3 ± 0.57 mg/g
same,BMD,"[2]; 500 pmol/d 5X/Week, 8 weeks",0.312 ± 0.005 g/cm^2
"C=C1[C@H](O)CC(=C/C=C2\CCC[C@]3(C)[C@@H]([C@@H](C)CCCC(C)(C)O)CC[C@@H]23)C[C@H]1O [2MD, 2-methylene-19-nor-20(S)-1α,25-dihydroxyvitamin D3]",breaking strength in the femurs (cortical strength),[1]; animals shown in Table 1,increases breaking strength in the femurs
same,crushing strength in the vertebra (trabecular strength),[1]; animals shown in Table 1,increases
same,Stress Value Femur,[1]; 32 pmol/d/2X/Week,134.84 ± 14.12
same,Stress Value Vertebra,[1]; 32 pmol/d/2X/Week,23.93 ± 6.59
same,Stress Value Femur,[1]; 65 pmol/d/1X/Week,133.71 ± 14.06
same,Stress Value Vertebra,[1]; 65 pmol/d/1X/Week,17.07 ± 5.73
same,elevation of serum calcium concentration,Rhesus monkeys,does not cause significant elevation of serum calcium concentration; also recorded: without appreciably elevating serum calcium concentration
same,"activity in stimulating intestinal calcium transport compared to 1,25(OH)2D3",[3],"activity similar to that of 1,25-dihydroxyvitamin D3; also recorded: approximately equal that of 1,25-(OH)2D3"
same,"binding to the vitamin D receptor compared to 1,25-(OH)2D3",[4],"about as active as 1,25(OH)2D3"
same,"binding to the vitamin D receptor compared to 1,25-(OH)2D3","[4]; listed as 2-methylene-20(S)-19-nor-1,25-(OH)2D3",bound equally well
same,"restoring bone of ovariectomized, old female rats","[2]; 32 pmol given 2 times per week, compared to 1,25(OH)2D3 at high doses 3 times per week",very effective in restoring bone
same,building bone mass in ovariectomized rats,"[2]; compared to the native hormone / sham-operated controls, FIGS. 4 and 6",extraordinarily effective in building bone mass; also recorded: causes an increase in bone mass above that of sham-operated controls
same,serum calcium concentration in ovariectomized rats,[2]; dosage levels used in the bone mass study,without increasing serum calcium concentration; also recorded: no change in serum calcium
same,% ash in the femur,[2]; ovariectomized old female rats,increases % ash in the femur; also recorded: percent ash is unexpectedly increased further
same,BMC,"[2]; 32 pmol/d 2X/Week, 8 weeks",8.4 ± 0.13 g
same,BMC/Body Wt.,"[2]; 32 pmol/d 2X/Week, 8 weeks",22.4 ± 0.64 mg/g
same,BMD,"[2]; 32 pmol/d 2X/Week, 8 weeks",0.295 ± 0.009 g/cm^2
same,Body Wt.,"[2]; 32 pmol/d 2X/Week, 8 weeks",375 ± 8.2 g
same,BMC,"[2]; 32 pmol/d 2X/Week, 17 weeks",9.7 ± 0.19 g
same,BMC/Body Wt.,"[2]; 32 pmol/d 2X/Week, 17 weeks",26.2 ± 0.92 mg/g
same,BMD,"[2]; 32 pmol/d 2X/Week, 17 weeks",0.313 ± 0.011 g/cm^2
same,Body Wt.,"[2]; 32 pmol/d 2X/Week, 17 weeks",373 ± 11.0 g
same,BMC,"[2]; 32 pmol/d 2X/Week, 30 weeks",11.6 ± 0.40 g
same,BMC/Body Wt.,"[2]; 32 pmol/d 2X/Week, 30 weeks",33.4 ± 1.60 mg/g
same,BMD,"[2]; 32 pmol/d 2X/Week, 30 weeks",0.331 ± 0.006 g/cm^2
same,Body Wt.,"[2]; 32 pmol/d 2X/Week, 30 weeks",346 ± 11.0 g
same,Femur Ash,"[2]; 32 pmol/d 2X/Week, 30 weeks",462 ± 21.4 mg
same,Femur Ash (%),"[2]; 32 pmol/d 2X/Week, 30 weeks",65.6 ± 1.7%
same,Serum CA,"[2]; 32 pmol/d 2X/Week, 30 weeks",10.8 ± 0.22 mg/dL
same,BMC,"[2]; 65 pmol/d 1X/Week, 8 weeks",8.5 ± 0.23 g
same,BMC/Body Wt.,"[2]; 65 pmol/d 1X/Week, 8 weeks",22.2 ± 0.53 mg/g
same,BMD,"[2]; 65 pmol/d 1X/Week, 8 weeks",0.293 ± 0.004 g/cm^2
same,Body Wt.,"[2]; 65 pmol/d 1X/Week, 8 weeks",408 ± 10.5 g
same,BMC,"[2]; 65 pmol/d 1X/Week, 17 weeks",9.6 ± 0.24 g
same,BMC/Body Wt.,"[2]; 65 pmol/d 1X/Week, 17 weeks",24.0 ± 0.80 mg/g
same,BMD,"[2]; 65 pmol/d 1X/Week, 17 weeks",0.312 ± 0.005 g/cm^2
same,Body Wt.,"[2]; 65 pmol/d 1X/Week, 17 weeks",402 ± 11.3 g
same,BMC,"[2]; 65 pmol/d 1X/Week, 30 weeks",10.2 ± 0.33 g
same,BMC/Body Wt.,"[2]; 65 pmol/d 1X/Week, 30 weeks",26.0 ± 1.10 mg/g
same,BMD,"[2]; 65 pmol/d 1X/Week, 30 weeks",0.310 ± 0.009 g/cm^2
same,Body Wt.,"[2]; 65 pmol/d 1X/Week, 30 weeks",393 ± 15.0 g
same,Femur Ash,"[2]; 65 pmol/d 1X/Week, 30 weeks",443 ± 11.6 mg
same,Femur Ash (%),"[2]; 65 pmol/d 1X/Week, 30 weeks",62.5 ± 0.57%
same,Serum CA,"[2]; 65 pmol/d 1X/Week, 30 weeks",10.7 ± 0.46 mg/dL
